Results: ChEMBL document CHEMBL1201862, “PubChem BioAssay data set” (2004)
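Values below derive from 48-hour exposures of cells grown in 96-well plates, with endpoints linearly interpolated between the two concentrations bracketing the appropriate inhibition level. GI50 is the concentration that inhibits growth by half.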 Calls of active or inactive are those of the source. Rule as the data show it: active = GI50 up to about 1.1 µM and inactive = higher.

Key:
Experiment in all cases: NCI anticancer screen, dose series, 48 h
[1] = tested on: RPMI-8226
[2] = tested on: UO-31
[3] = tested on: U-251
[4] = tested on: CCRF-CEM
[5] = tested on: NCI-H226
[6] = tested on: NCI-H23
[7] = tested on: K562
[8] = tested on: HOP-62
[9] = tested on: COLO 205
[10] = tested on: T47D
[11] = tested on: UACC-257
[12] = tested on: SNB-19
[13] = tested on: MDA-N
[14] = tested on: A498
[15] = tested on: A549
[16] = tested on: RXF 393
[17] = tested on: OVCAR-8
[18] = tested on: IGROV-1
[19] = tested on: NCI-H522
[20] = tested on: SR

| SMILES | GI50 [1] | GI50 [2] | GI50 [3] | GI50 [4] | GI50 [5] | GI50 [6] | GI50 [7] | GI50 [8] | GI50 [9] | GI50 [10] | GI50 [11] | GI50 [12] | GI50 [13] | GI50 [14] | GI50 [15] | GI50 [16] | GI50 [17] | GI50 [18] | GI50 [19] | GI50 [20] |
| --- | --- | --- | --- | --- | --- | --- | --- | --- | --- | --- | --- | --- | --- | --- | --- | --- | --- | --- | --- | --- |
| O=[N+]([O-])/C(C(Cl)=C(Cl)Cl)=C(\Nc1cccc2cccnc12)Sc1ccccc1 | 31.5 µM (inactive) | 18.9 µM (inactive) | 16.2 µM (inactive) | 27.7 µM (inactive) | 28.6 µM (inactive) | 18.3 µM (inactive) | 28.4 µM (inactive) | 23.4 µM (inactive) | 17.1 µM (inactive) | 18.3 µM (inactive) | 19.8 µM (inactive) | 31.6 µM (inactive) | 43 µM (inactive) | 20 µM (inactive) | 29.9 µM (inactive) | – | – | – | – | – |
| CC(C#N)Nc1ccc(Oc2ccc(C(C)(C)c3ccc(Oc4ccc(NC(C)C#N)cc4)cc3)cc2)cc1 (centres undefined) | – | 5.08 µM (inactive) | > 100 µM (inactive) | – | > 100 µM (inactive) | 40.9 µM (inactive) | > 100 µM (inactive) | – | > 100 µM (inactive) | 0.409 µM (active) | 8.85 µM (inactive) | > 100 µM (inactive) | > 100 µM (inactive) | > 100 µM (inactive) | > 100 µM (inactive) | > 100 µM (inactive) | > 100 µM (inactive) | > 100 µM (inactive) | – | – |
| C(/Cc1ccc2c(c1)OCO2)=N\N=C1NCCCCN1 | 48.4 µM (inactive) | 43.9 µM (inactive) | 86.3 µM (inactive) | 82.2 µM (inactive) | 49.2 µM (inactive) | > 100 µM (inactive) | 41.9 µM (inactive) | 55.8 µM (inactive) | > 100 µM (inactive) | 54.5 µM (inactive) | > 100 µM (inactive) | > 100 µM (inactive) | – | 24.8 µM (inactive) | > 100 µM (inactive) | > 100 µM (inactive) | > 100 µM (inactive) | 68.9 µM (inactive) | > 100 µM (inactive) | 69.3 µM (inactive) |
| CC(=O)N(C(C)=O)n1c(-c2ccccc2)n[nH]c1=O | > 100 µM (inactive) | > 100 µM (inactive) | > 100 µM (inactive) | > 100 µM (inactive) | – | > 100 µM (inactive) | > 100 µM (inactive) | > 100 µM (inactive) | > 100 µM (inactive) | – | > 100 µM (inactive) | > 100 µM (inactive) | > 100 µM (inactive) | – | > 100 µM (inactive) | > 100 µM (inactive) | > 100 µM (inactive) | > 100 µM (inactive) | > 100 µM (inactive) | > 100 µM (inactive) |
| O=C1C=CC(O)C2C1CC13SSC4(CC5C(=O)C=CC(O)C5N4C1=O)C(=O)N23 (centres undefined) | < 0.01 µM (active) | 0.272 µM (active) | 0.234 µM (active) | < 0.01 µM (active) | 0.308 µM (active) | 0.106 µM (active) | 0.0358 µM (active) | 0.324 µM (active) | 0.155 µM (active) | 0.499 µM (active) | 0.183 µM (active) | 1.36 µM (inactive) | – | 3.2 µM (inactive) | 2.52 µM (inactive) | 0.483 µM (active) | 0.0698 µM (active) | 1.37 µM (inactive) | 0.0453 µM (active) | < 0.01 µM (active) |
| CC(=O)Nc1ccc(-c2nc3ccccc3s2)cc1 | > 100 µM (inactive) | 45.5 µM (inactive) | 27.5 µM (inactive) | 64.1 µM (inactive) | 44.8 µM (inactive) | 52.1 µM (inactive) | 1.96 µM (inactive) | 20.9 µM (inactive) | 58.9 µM (inactive) | 31.1 µM (inactive) | > 100 µM (inactive) | 33.4 µM (inactive) | – | 13.4 µM (inactive) | – | 23.6 µM (inactive) | 35.4 µM (inactive) | 47.6 µM (inactive) | – | 45.6 µM (inactive) |
| Nc1ncnc2c1ncn2CC(OCP(=O)(O)O)Oc1ccccc1 (centres undefined) | > 100 µM (inactive) | > 100 µM (inactive) | > 100 µM (inactive) | > 100 µM (inactive) | > 100 µM (inactive) | – | > 100 µM (inactive) | > 100 µM (inactive) | > 100 µM (inactive) | > 100 µM (inactive) | > 100 µM (inactive) | > 100 µM (inactive) | > 100 µM (inactive) | > 100 µM (inactive) | > 100 µM (inactive) | > 100 µM (inactive) | – | – | – | – |
| CN(C)N1C(=O)c2ccccc2NC1c1ccccc1 (centres undefined) | > 100 µM (inactive) | > 100 µM (inactive) | > 100 µM (inactive) | > 100 µM (inactive) | > 100 µM (inactive) | > 100 µM (inactive) | – | > 100 µM (inactive) | > 100 µM (inactive) | > 100 µM (inactive) | > 100 µM (inactive) | > 100 µM (inactive) | > 100 µM (inactive) | > 100 µM (inactive) | > 100 µM (inactive) | – | > 100 µM (inactive) | > 100 µM (inactive) | > 100 µM (inactive) | – |
| COC(=O)C1CC2(C)C=CC1N(C(=O)OCc1ccccc1)C2 (centres undefined) | 48 µM (inactive) | 69.5 µM (inactive) | 58.1 µM (inactive) | 69 µM (inactive) | > 100 µM (inactive) | 59.3 µM (inactive) | 49.7 µM (inactive) | > 100 µM (inactive) | > 100 µM (inactive) | 40 µM (inactive) | 65.3 µM (inactive) | > 100 µM (inactive) | – | > 100 µM (inactive) | 88.5 µM (inactive) | 41.9 µM (inactive) | > 100 µM (inactive) | > 100 µM (inactive) | 30.6 µM (inactive) | 37.6 µM (inactive) |
| Cc1c(Cc2ccccc2)n(C(C)OCCN(OC(=O)Oc2ccccc2)C(=O)Oc2ccccc2)c(=O)[nH]c1=O (centres undefined) | 24.2 µM (inactive) | 14.5 µM (inactive) | 19 µM (inactive) | 12.4 µM (inactive) | – | 16.3 µM (inactive) | 26.9 µM (inactive) | 18.1 µM (inactive) | 18.3 µM (inactive) | – | 15 µM (inactive) | 25.1 µM (inactive) | 19.3 µM (inactive) | – | 25.2 µM (inactive) | 15.8 µM (inactive) | 16.9 µM (inactive) | 14.9 µM (inactive) | 14.5 µM (inactive) | 28.6 µM (inactive) |
| Cc1ccc(S(=O)(=O)c2ccc([N+](=O)[O-])o2)cc1 | 1.65 µM (inactive) | 1.44 µM (inactive) | 5.48 µM (inactive) | 0.242 µM (active) | 10.8 µM (inactive) | 3.52 µM (inactive) | 1.23 µM (inactive) | 17.7 µM (inactive) | 0.916 µM (active) | 2.36 µM (inactive) | 1.87 µM (inactive) | 20.1 µM (inactive) | – | 17 µM (inactive) | 8.81 µM (inactive) | 1.62 µM (inactive) | 0.906 µM (active) | 1.55 µM (inactive) | 0.185 µM (active) | – |
| COc1cc2c3c(n(C)c(=O)c2cc1OC)-c1cc2c(cc1/C3=C\CCCCl)OCO2 | – | 53.8 µM (inactive) | 25.2 µM (inactive) | 8.95 µM (inactive) | – | 19.9 µM (inactive) | 23.2 µM (inactive) | – | 32.9 µM (inactive) | 30.3 µM (inactive) | 36.9 µM (inactive) | 44.9 µM (inactive) | > 100 µM (inactive) | 25.3 µM (inactive) | > 100 µM (inactive) | 12.9 µM (inactive) | 49.4 µM (inactive) | 25.4 µM (inactive) | 20.8 µM (inactive) | – |
| COc1cccc2c1C(=O)c1c(O)c3c(c(O)c1C2=O)C[C@@](O)(/C(C)=N/NC(=O)c1ccc(Cl)c(Cl)c1)C[C@@H]3OC1CC(N)C(O)C(C)O1 (some centres undefined) | 0.0269 µM (active) | 1.08 µM (active) | 0.0589 µM (active) | 0.0299 µM (active) | 0.092 µM (active) | 0.0592 µM (active) | 0.197 µM (active) | 0.147 µM (active) | 0.176 µM (active) | 0.372 µM (active) | 0.188 µM (active) | 0.0792 µM (active) | – | 1.22 µM (inactive) | 0.186 µM (active) | 1.15 µM (inactive) | 0.292 µM (active) | 0.462 µM (active) | 0.223 µM (active) | < 0.01 µM (active) |
| CN(C)/N=N/c1nc2c(c(=O)n(C)c(=O)n2C)n1CC1CO1 (centres undefined) | 23.8 µM (inactive) | 14.5 µM (inactive) | 12.5 µM (inactive) | 23.8 µM (inactive) | 8.51 µM (inactive) | 12.2 µM (inactive) | 19.2 µM (inactive) | 12.1 µM (inactive) | 14.3 µM (inactive) | 18.4 µM (inactive) | 16.6 µM (inactive) | 19.9 µM (inactive) | 19.9 µM (inactive) | – | 20 µM (inactive) | 2.88 µM (inactive) | 14.5 µM (inactive) | 11.7 µM (inactive) | 14.1 µM (inactive) | – |
| Nc1nc(NCC2(CO)CC2)cc(=O)[nH]1 | > 100 µM (inactive) | > 100 µM (inactive) | > 100 µM (inactive) | > 100 µM (inactive) | > 100 µM (inactive) | > 100 µM (inactive) | > 100 µM (inactive) | > 100 µM (inactive) | > 100 µM (inactive) | > 100 µM (inactive) | > 100 µM (inactive) | > 100 µM (inactive) | – | > 100 µM (inactive) | > 100 µM (inactive) | > 100 µM (inactive) | > 100 µM (inactive) | > 100 µM (inactive) | > 100 µM (inactive) | > 100 µM (inactive) |
| COCCNC1CCC(=O)c2[nH]c3ccccc3c21 (centres undefined) | > 100 µM (inactive) | 65.8 µM (inactive) | > 100 µM (inactive) | > 100 µM (inactive) | > 100 µM (inactive) | > 100 µM (inactive) | > 100 µM (inactive) | > 100 µM (inactive) | > 100 µM (inactive) | – | > 100 µM (inactive) | > 100 µM (inactive) | > 100 µM (inactive) | > 100 µM (inactive) | > 100 µM (inactive) | > 100 µM (inactive) | > 100 µM (inactive) | > 100 µM (inactive) | > 100 µM (inactive) | > 100 µM (inactive) |
